{"source": "paper PMC7385619", "about": "“A triple action CDK4/6-PI3K-BET inhibitor with augmented cancer cell cytotoxicity” (Cell Discovery, 2020)", "test_in_all_cases": "KINOMEscan assay (Eurofins DiscoverX)", "format_in_all_cases": "binding", "key": {"kinome (kinase panel) [1]": {"molecular_target": "T1, kinome (kinase panel) (Homo sapiens, UniProt P51813)", "T1 construct": "purchased Eurofins DiscoverX", "settings": "BMX; 1000 nM; read-out: Percent Control"}, "kinome (kinase panel) [2]": {"molecular_target": "T2, kinome (kinase panel) (Homo sapiens, UniProt Q5S007, G2019S)", "T2 construct": "purchased Eurofins DiscoverX", "T2 sequence (Q5S007 whole entry G2019S)": "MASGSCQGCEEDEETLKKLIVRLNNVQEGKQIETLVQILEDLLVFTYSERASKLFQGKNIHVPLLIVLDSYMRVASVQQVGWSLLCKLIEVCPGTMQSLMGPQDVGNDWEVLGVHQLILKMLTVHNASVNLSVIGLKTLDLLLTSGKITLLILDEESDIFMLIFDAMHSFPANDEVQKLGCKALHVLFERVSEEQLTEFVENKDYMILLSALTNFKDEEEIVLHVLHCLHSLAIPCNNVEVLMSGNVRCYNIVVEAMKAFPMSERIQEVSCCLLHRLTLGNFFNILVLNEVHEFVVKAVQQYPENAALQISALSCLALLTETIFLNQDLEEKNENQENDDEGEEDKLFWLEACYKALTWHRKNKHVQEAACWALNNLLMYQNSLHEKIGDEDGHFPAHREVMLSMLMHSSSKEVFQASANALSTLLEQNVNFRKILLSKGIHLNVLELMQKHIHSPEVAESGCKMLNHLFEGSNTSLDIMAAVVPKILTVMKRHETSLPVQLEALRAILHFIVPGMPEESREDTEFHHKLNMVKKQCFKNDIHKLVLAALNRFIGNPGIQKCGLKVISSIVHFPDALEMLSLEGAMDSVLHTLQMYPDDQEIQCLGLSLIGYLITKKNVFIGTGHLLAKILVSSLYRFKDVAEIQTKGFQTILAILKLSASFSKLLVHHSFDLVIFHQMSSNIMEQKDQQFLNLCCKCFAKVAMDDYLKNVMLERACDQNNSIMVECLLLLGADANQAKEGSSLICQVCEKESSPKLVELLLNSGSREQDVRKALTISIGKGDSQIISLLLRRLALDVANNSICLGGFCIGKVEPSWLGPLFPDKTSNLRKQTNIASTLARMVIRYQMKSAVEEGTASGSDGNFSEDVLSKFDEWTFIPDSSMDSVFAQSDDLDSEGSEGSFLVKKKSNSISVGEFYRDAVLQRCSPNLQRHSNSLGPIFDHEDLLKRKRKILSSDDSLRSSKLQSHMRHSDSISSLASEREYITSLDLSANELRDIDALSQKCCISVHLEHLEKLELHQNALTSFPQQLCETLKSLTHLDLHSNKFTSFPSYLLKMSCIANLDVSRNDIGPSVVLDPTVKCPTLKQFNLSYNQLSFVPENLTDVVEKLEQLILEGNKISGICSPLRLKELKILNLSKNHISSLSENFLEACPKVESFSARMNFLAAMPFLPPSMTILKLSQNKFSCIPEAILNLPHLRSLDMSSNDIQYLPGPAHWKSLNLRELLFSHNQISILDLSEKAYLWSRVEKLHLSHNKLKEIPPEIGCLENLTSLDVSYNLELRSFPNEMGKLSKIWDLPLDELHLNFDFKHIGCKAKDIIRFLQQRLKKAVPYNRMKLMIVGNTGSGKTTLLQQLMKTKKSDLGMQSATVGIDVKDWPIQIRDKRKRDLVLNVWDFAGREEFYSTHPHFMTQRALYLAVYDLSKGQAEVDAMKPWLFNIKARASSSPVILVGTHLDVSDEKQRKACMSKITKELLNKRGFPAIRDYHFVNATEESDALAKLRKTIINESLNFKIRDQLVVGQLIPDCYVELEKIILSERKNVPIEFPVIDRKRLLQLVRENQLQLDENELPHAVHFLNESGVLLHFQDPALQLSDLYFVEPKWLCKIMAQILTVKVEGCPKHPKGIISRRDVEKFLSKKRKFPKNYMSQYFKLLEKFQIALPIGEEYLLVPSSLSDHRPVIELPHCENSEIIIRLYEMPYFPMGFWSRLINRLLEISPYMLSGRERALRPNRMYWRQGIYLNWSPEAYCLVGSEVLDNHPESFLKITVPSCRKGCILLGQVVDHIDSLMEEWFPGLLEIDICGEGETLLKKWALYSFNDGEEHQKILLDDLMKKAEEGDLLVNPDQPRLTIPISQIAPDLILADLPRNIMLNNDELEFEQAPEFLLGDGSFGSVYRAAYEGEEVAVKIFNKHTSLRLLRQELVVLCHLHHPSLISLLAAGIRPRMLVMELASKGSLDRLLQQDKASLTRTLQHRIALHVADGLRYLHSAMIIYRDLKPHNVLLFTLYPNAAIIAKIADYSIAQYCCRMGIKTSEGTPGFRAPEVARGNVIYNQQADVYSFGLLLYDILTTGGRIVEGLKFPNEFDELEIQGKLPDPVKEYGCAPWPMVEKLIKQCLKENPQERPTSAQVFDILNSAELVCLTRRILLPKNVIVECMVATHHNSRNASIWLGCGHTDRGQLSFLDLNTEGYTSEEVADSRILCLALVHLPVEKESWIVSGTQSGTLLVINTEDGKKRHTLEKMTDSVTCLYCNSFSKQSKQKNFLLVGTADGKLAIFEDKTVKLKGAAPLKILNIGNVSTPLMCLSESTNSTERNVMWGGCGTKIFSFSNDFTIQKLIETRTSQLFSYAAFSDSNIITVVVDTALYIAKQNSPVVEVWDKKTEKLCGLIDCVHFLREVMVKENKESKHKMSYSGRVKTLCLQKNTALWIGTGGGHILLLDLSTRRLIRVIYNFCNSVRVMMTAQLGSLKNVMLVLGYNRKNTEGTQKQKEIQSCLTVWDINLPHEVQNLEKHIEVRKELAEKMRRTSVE", "settings": "read-out: Percent Control"}, "kinome (kinase panel) [3]": {"molecular_target": "T3, kinome (kinase panel) (Homo sapiens, UniProt P22607, G697C)", "T3 construct": "purchased Eurofins DiscoverX", "settings": "read-out: Percent Control"}, "kinome (kinase panel) [4]": {"molecular_target": "T4, kinome (kinase panel) (Homo sapiens, UniProt Q16566)", "T4 construct": "purchased Eurofins DiscoverX", "settings": "CAMK4; 1000 nM; read-out: Percent Control"}, "kinome (kinase panel) [5]": {"molecular_target": "T5, kinome (kinase panel) (Homo sapiens, UniProt P42336, E545A)", "T5 construct": "purchased Eurofins DiscoverX", "T5 sequence (P42336 whole entry E545A)": "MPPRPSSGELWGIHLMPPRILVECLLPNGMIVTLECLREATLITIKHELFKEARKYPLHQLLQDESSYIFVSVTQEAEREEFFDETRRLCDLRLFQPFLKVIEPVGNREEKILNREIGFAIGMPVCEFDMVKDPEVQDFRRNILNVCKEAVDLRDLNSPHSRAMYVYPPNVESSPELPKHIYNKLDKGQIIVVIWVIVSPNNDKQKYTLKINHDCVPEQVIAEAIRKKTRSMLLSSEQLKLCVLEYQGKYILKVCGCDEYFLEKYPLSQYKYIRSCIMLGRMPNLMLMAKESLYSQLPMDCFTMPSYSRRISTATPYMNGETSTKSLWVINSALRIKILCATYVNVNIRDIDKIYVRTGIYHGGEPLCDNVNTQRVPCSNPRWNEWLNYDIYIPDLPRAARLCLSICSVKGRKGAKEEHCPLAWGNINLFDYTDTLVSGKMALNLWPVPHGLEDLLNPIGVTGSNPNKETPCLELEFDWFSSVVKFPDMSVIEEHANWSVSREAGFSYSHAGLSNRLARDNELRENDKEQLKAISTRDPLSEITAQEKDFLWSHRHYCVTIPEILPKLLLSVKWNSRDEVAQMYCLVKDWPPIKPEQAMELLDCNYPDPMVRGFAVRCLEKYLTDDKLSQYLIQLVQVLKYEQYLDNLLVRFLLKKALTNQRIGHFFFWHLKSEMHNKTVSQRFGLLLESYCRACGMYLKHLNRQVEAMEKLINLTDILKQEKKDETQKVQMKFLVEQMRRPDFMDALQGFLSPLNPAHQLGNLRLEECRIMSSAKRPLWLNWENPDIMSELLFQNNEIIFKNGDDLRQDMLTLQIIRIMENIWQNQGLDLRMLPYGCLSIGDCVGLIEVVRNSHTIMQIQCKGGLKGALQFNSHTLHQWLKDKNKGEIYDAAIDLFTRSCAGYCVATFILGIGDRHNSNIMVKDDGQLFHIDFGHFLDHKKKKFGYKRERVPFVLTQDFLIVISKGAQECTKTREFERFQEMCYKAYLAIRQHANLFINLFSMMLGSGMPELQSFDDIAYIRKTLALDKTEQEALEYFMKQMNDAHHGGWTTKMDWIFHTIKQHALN", "settings": "read-out: Percent Control"}, "kinome (kinase panel) [6]": {"molecular_target": "T6, kinome (kinase panel) (Homo sapiens, UniProt P23458)", "T6 construct": "purchased Eurofins DiscoverX", "settings": "1000 nM, read-out: Percent Control"}, "kinome (kinase panel) [7]": {"molecular_target": "T7, kinome (kinase panel) (Homo sapiens, UniProt Q9UF33)", "T7 construct": "purchased Eurofins DiscoverX", "settings": "EPHA6; 1000 nM; read-out: Percent Control"}, "kinome (kinase panel) [8]": {"molecular_target": "T8, kinome (kinase panel) (Homo sapiens, UniProt P42336, H1047L)", "T8 construct": "purchased Eurofins DiscoverX", "T8 sequence (P42336 whole entry H1047L)": "as the sequence (P42336 whole entry E545A) above, with A545E, H1047L counted along it", "settings": "read-out: Percent Control"}, "kinome (kinase panel) [9]": {"molecular_target": "T9, kinome (kinase panel) (Homo sapiens, UniProt P36896)", "T9 construct": "purchased Eurofins DiscoverX", "T9 sequence (P36896 24-505)": "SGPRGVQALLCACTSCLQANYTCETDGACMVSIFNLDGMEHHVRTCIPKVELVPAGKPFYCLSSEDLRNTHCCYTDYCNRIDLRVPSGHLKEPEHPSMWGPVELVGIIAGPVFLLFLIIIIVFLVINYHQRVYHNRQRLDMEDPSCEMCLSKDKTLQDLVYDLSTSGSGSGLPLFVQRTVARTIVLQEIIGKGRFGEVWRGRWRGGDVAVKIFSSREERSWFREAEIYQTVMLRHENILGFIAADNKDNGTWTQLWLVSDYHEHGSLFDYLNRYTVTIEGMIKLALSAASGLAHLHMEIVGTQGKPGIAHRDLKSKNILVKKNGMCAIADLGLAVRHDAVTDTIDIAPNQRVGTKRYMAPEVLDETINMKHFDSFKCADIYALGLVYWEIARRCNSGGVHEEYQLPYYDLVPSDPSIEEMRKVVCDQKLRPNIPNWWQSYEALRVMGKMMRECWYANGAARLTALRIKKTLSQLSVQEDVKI", "settings": "ACVR1B; 1000 nM; read-out: Percent Control"}, "kinome (kinase panel) [10]": {"molecular_target": "T10, kinome (kinase panel) (Homo sapiens, UniProt Q8TDR2)", "T10 construct": "purchased Eurofins DiscoverX", "settings": "STK35; 1000 nM; read-out: Percent Control"}, "kinome (kinase panel) [11]": {"molecular_target": "T11, kinome (kinase panel) (Homo sapiens, UniProt P31152)", "T11 construct": "purchased Eurofins DiscoverX", "settings": "ERK4 (Entrez MAPK4); 1000 nM; read-out: Percent Control"}, "kinome (kinase panel) [12]": {"molecular_target": "T12, kinome (kinase panel) (Homo sapiens, UniProt P15735)", "T12 construct": "purchased Eurofins DiscoverX", "settings": "PHKG2; 1000 nM; read-out: Percent Control"}, "kinome (kinase panel) [13]": {"molecular_target": "T13, kinome (kinase panel) (Homo sapiens, UniProt P29597)", "T13 construct": "purchased Eurofins DiscoverX", "settings": "1000 nM, read-out: Percent Control"}, "kinome (kinase panel) [14]": {"molecular_target": "T14, kinome (kinase panel) (Homo sapiens, UniProt O94806)", "T14 construct": "purchased Eurofins DiscoverX", "settings": "PRKD3; 1000 nM; read-out: Percent Control"}, "kinome (kinase panel) [15]": {"molecular_target": "T15, kinome (kinase panel) (Homo sapiens, UniProt P48729)", "T15 construct": "purchased Eurofins DiscoverX", "settings": "CSNK1A1; 1000 nM; read-out: Percent Control"}, "kinome (kinase panel) [16]": {"molecular_target": "T16, kinome (kinase panel) (Homo sapiens, UniProt P07947)", "T16 construct": "purchased Eurofins DiscoverX", "settings": "YES (YES1); 1000 nM; read-out: Percent Control"}, "kinome (kinase panel) [17]": {"molecular_target": "T17, kinome (kinase panel) (Homo sapiens, UniProt P52564)", "T17 construct": "purchased Eurofins DiscoverX", "settings": "MEK6 (Entrez MAP2K6); 1000 nM; read-out: Percent Control"}, "kinome (kinase panel) [18]": {"molecular_target": "T18, kinome (kinase panel) (Homo sapiens, UniProt Q13555)", "T18 construct": "purchased Eurofins DiscoverX", "settings": "CAMK2G; 1000 nM; read-out: Percent Control"}, "kinome (kinase panel) [19]": {"molecular_target": "T19, kinome (kinase panel) (Homo sapiens, UniProt P16591)", "T19 construct": "purchased Eurofins DiscoverX", "settings": "FER; 1000 nM; read-out: Percent Control"}, "kinome (kinase panel) [20]": {"molecular_target": "T20, kinome (kinase panel) (Homo sapiens, UniProt Q9UPE1)", "T20 construct": "purchased Eurofins DiscoverX", "settings": "SRPK3; 1000 nM; read-out: Percent Control"}, "kinome (kinase panel) [21]": {"molecular_target": "T21, kinome (kinase panel) (Homo sapiens, UniProt Q15835)", "T21 construct": "purchased Eurofins DiscoverX", "settings": "GRK1; 1000 nM; read-out: Percent Control"}, "kinome (kinase panel) [22]": {"molecular_target": "T22, kinome (kinase panel) (Homo sapiens, UniProt Q15349)", "T22 construct": "purchased Eurofins DiscoverX", "settings": "1000 nM, read-out: Percent Control"}, "kinome (kinase panel) [23]": {"molecular_target": "T23, kinome (kinase panel) (Homo sapiens, UniProt O43293)", "T23 construct": "purchased Eurofins DiscoverX", "settings": "DAPK3; 1000 nM; read-out: Percent Control"}, "kinome (kinase panel) [24]": {"molecular_target": "T24, kinome (kinase panel) (Homo sapiens, UniProt P53671)", "T24 construct": "purchased Eurofins DiscoverX", "settings": "LIMK2; 1000 nM; read-out: Percent Control"}, "kinome (kinase panel) [25]": {"molecular_target": "T25, kinome (kinase panel) (Homo sapiens, UniProt Q9Y2H1)", "T25 construct": "purchased Eurofins DiscoverX", "settings": "NDR2 (Entrez STK38L); 1000 nM; read-out: Percent Control"}, "kinome (kinase panel) [26]": {"molecular_target": "T26, kinome (kinase panel) (Homo sapiens, UniProt O94768)", "T26 construct": "purchased Eurofins DiscoverX", "settings": "DRAK2 (Entrez STK17B); 1000 nM; read-out: Percent Control"}, "kinome (kinase panel) [27]": {"molecular_target": "T27, kinome (kinase panel) (Homo sapiens, UniProt P54646)", "T27 construct": "purchased Eurofins DiscoverX", "settings": "AMPK-alpha2 (Entrez PRKAA2); 1000 nM; read-out: Percent Control"}, "kinome (kinase panel) [28]": {"molecular_target": "T28, kinome (kinase panel) (Homo sapiens, UniProt P15056, V600E)", "T28 construct": "purchased Eurofins DiscoverX", "settings": "[…]; 1000 nM; read-out: Percent Control"}, "kinome (kinase panel) [29]": {"molecular_target": "T29, kinome (kinase panel) (Homo sapiens, UniProt P09619)", "T29 construct": "purchased Eurofins DiscoverX", "settings": "PDGFRB; 1000 nM; read-out: Percent Control"}, "kinome (kinase panel) [30]": {"molecular_target": "T30, kinome (kinase panel) (Homo sapiens, UniProt P08631)", "T30 construct": "purchased Eurofins DiscoverX", "T30 sequence (P08631 whole entry)": "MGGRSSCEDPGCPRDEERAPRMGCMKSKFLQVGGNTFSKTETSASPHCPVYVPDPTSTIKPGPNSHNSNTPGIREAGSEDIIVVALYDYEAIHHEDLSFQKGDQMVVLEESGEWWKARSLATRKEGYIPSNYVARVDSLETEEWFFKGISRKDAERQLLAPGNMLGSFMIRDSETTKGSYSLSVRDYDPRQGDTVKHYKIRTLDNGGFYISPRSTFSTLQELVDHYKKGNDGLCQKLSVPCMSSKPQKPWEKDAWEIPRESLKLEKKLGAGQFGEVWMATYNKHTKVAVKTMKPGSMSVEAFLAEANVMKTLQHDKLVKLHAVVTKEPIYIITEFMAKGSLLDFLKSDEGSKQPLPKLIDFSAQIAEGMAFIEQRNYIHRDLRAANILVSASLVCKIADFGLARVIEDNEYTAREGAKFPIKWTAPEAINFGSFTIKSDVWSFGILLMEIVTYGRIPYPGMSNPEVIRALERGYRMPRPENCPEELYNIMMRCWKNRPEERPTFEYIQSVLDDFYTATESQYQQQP", "settings": "HCK; 1000 nM; read-out: Percent Control"}, "kinome (kinase panel) [31]": {"molecular_target": "T31, kinome (kinase panel) (Homo sapiens, UniProt P51955)", "T31 construct": "purchased Eurofins DiscoverX", "T31 sequence (P51955 whole entry)": "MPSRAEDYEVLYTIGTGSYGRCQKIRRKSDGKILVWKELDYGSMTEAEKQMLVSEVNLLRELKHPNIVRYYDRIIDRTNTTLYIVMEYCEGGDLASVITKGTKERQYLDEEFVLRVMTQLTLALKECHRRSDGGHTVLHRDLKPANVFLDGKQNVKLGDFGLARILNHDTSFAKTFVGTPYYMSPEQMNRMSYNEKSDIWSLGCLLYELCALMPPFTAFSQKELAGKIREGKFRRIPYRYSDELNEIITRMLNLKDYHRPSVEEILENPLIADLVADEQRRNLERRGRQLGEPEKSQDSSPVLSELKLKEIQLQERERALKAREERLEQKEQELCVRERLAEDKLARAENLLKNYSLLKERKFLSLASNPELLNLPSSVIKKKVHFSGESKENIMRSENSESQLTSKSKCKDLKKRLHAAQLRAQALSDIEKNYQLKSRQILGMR", "settings": "NEK2; 1000 nM; read-out: Percent Control"}, "kinome (kinase panel) [32]": {"molecular_target": "T32, kinome (kinase panel) (Homo sapiens, UniProt P57058)", "T32 construct": "purchased Eurofins DiscoverX", "settings": "HUNK; 1000 nM; read-out: Percent Control"}}, "note": "Where two headings read alike, the source gives them in different places."}
{"compound": "CN(C)C(=O)c1cc2cnc(Nc3ccc(-c4csc5c(=O)cc(N6CCOCC6)oc45)cc3)nc2n1C1CCCC1", "note": "[SRX3177]", "values": [{"measurement": "remaining binding at 1 µM", "setting": "kinome (kinase panel) [1]", "value": 77, "unit": "%"}, {"measurement": "remaining binding at 1 µM", "setting": "kinome (kinase panel) [2]", "value": 44, "unit": "%"}, {"measurement": "remaining binding at 1 µM", "setting": "kinome (kinase panel) [3]", "value": 89, "unit": "%"}, {"measurement": "remaining binding at 1 µM", "setting": "kinome (kinase panel) [4]", "value": 100, "unit": "%"}, {"measurement": "remaining binding at 1 µM", "setting": "kinome (kinase panel) [5]", "value": 82, "unit": "%"}, {"measurement": "remaining binding at 1 µM", "setting": "kinome (kinase panel) [6]; JAK1(JH1domain-catalytic)", "value": 96, "unit": "%"}, {"measurement": "remaining binding at 1 µM", "setting": "kinome (kinase panel) [6]; JAK1(JH2domain-pseudokinase)", "value": 9.5, "unit": "%"}, {"measurement": "remaining binding at 1 µM", "setting": "kinome (kinase panel) [7]", "value": 99, "unit": "%"}, {"measurement": "remaining binding at 1 µM", "setting": "kinome (kinase panel) [8]", "value": 41, "unit": "%"}, {"measurement": "remaining binding at 1 µM", "setting": "kinome (kinase panel) [9]", "value": 100, "unit": "%"}, {"measurement": "remaining binding at 1 µM", "setting": "kinome (kinase panel) [10]", "value": 100, "unit": "%"}, {"measurement": "remaining binding at 1 µM", "setting": "kinome (kinase panel) [11]", "value": 96, "unit": "%"}, {"measurement": "remaining binding at 1 µM", "setting": "kinome (kinase panel) [12]", "value": 97, "unit": "%"}, {"measurement": "remaining binding at 1 µM", "setting": "kinome (kinase panel) [13]; TYK2(JH1domain-catalytic)", "value": 69, "unit": "%"}, {"measurement": "remaining binding at 1 µM", "setting": "kinome (kinase panel) [13]; TYK2(JH2domain-pseudokinase)", "value": 9.7, "unit": "%"}, {"measurement": "remaining binding at 1 µM", "setting": "kinome (kinase panel) [14]", "value": 92, "unit": "%"}, {"measurement": "remaining binding at 1 µM", "setting": "kinome (kinase panel) [15]", "value": 83, "unit": "%"}, {"measurement": "remaining binding at 1 µM", "setting": "kinome (kinase panel) [16]", "value": 93, "unit": "%"}, {"measurement": "remaining binding at 1 µM", "setting": "kinome (kinase panel) [17]", "value": 100, "unit": "%"}, {"measurement": "remaining binding at 1 µM", "setting": "kinome (kinase panel) [18]", "value": 65, "unit": "%"}, {"measurement": "remaining binding at 1 µM", "setting": "kinome (kinase panel) [19]", "value": 92, "unit": "%"}, {"measurement": "remaining binding at 1 µM", "setting": "kinome (kinase panel) [20]", "value": 35, "unit": "%"}, {"measurement": "remaining binding at 1 µM", "setting": "kinome (kinase panel) [21]", "value": 79, "unit": "%"}, {"measurement": "remaining binding at 1 µM", "setting": "kinome (kinase panel) [22]; RSK3(Kin.Dom.1-N-terminal) (RPS6KA2)", "value": 80, "unit": "%"}, {"measurement": "remaining binding at 1 µM", "setting": "kinome (kinase panel) [22]; RSK3(Kin.Dom.2-C-terminal) (RPS6KA2)", "value": 74, "unit": "%"}, {"measurement": "remaining binding at 1 µM", "setting": "kinome (kinase panel) [23]", "value": 100, "unit": "%"}, {"measurement": "remaining binding at 1 µM", "setting": "kinome (kinase panel) [24]", "value": 92, "unit": "%"}, {"measurement": "remaining binding at 1 µM", "setting": "kinome (kinase panel) [25]", "value": 90, "unit": "%"}, {"measurement": "remaining binding at 1 µM", "setting": "kinome (kinase panel) [26]", "value": 100, "unit": "%"}, {"measurement": "remaining binding at 1 µM", "setting": "kinome (kinase panel) [27]", "value": 98, "unit": "%"}, {"measurement": "remaining binding at 1 µM", "setting": "kinome (kinase panel) [28]", "value": 64, "unit": "%"}, {"measurement": "remaining binding at 1 µM", "setting": "kinome (kinase panel) [29]", "value": 44, "unit": "%"}, {"measurement": "remaining binding at 1 µM", "setting": "kinome (kinase panel) [30]", "value": 100, "unit": "%"}, {"measurement": "remaining binding at 1 µM", "setting": "kinome (kinase panel) [31]", "value": 90, "unit": "%"}, {"measurement": "remaining binding at 1 µM", "setting": "kinome (kinase panel) [32]", "value": 100, "unit": "%"}]}
